Data: ChEMBL document CHEMBL4270584, “In silico fragment-based drug design with SEED” (Eur J Med Chem, 2018)
Blank lines part the entries; values can stand above or below the molecule they belong to.

Columns and labels:
Beta-secretase 1 = Beta-secretase 1 (Homo sapiens, UniProt P56817); test: Inhibition of human BACE-1 after 30 mins by FRET assay
[1] = target: T1, Bromodomain-containing protein 4 (Homo sapiens, UniProt O60885); test: Binding affinity to human BRD4 bromodomain-1
[2] = target: T2, ATPase family AAA domain-containing protein 2 (Homo sapiens, UniProt Q6PL18); test: Inhibition of H4K5/8/12/16-Ac-biotin binding to human ATAD2 by Alpha screen assay
T2 sequence (Q6PL18 whole entry): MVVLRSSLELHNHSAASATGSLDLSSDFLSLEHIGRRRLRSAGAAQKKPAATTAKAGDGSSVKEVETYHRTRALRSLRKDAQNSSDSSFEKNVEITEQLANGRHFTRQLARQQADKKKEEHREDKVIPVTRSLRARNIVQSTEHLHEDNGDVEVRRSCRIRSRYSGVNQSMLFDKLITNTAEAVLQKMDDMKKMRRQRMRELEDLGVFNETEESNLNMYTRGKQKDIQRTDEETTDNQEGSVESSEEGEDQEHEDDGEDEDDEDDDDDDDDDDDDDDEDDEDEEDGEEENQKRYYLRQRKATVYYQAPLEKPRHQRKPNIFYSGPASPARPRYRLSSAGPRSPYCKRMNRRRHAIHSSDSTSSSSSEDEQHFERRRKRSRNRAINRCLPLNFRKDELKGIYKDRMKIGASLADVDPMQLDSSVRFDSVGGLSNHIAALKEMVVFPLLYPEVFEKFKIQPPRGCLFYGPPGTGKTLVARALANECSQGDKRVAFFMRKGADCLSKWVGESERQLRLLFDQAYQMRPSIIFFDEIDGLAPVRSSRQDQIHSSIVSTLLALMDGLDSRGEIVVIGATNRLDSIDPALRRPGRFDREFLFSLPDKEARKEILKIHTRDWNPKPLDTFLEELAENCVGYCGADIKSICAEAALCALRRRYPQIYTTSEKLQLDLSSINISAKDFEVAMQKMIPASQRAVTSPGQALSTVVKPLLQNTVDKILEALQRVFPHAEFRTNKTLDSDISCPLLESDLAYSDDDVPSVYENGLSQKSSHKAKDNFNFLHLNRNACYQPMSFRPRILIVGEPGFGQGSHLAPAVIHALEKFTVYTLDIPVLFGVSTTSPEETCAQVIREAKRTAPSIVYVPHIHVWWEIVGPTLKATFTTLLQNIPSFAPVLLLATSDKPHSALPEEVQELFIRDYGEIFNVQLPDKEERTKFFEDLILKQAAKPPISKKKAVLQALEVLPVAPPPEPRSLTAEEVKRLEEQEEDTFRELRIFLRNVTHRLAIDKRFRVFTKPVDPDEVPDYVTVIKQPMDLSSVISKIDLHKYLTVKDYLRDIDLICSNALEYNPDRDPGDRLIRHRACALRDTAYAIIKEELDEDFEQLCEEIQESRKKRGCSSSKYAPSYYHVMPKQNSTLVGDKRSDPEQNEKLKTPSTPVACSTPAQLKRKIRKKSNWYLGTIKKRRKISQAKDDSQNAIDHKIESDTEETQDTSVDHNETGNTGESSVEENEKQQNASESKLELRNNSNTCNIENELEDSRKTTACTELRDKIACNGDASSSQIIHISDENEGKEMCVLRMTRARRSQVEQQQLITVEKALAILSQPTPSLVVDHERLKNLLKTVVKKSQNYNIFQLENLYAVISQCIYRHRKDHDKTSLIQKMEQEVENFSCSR

[3] = target: T1, Bromodomain-containing protein 4; test: Inhibition of H4K5/8/12/16-Ac-biotin binding to human BRD4 bromodomain-1 by Alpha screen assay
[4] = target: T3, 3-dehydroquinate dehydratase (Helicobacter pylori (strain ATCC 700392 / 26695) (Campylobacterpylori), UniProt Q48255); test: Inhibition of Helicobacter pylori DHQ2
T3 sequence (Q48255 whole entry): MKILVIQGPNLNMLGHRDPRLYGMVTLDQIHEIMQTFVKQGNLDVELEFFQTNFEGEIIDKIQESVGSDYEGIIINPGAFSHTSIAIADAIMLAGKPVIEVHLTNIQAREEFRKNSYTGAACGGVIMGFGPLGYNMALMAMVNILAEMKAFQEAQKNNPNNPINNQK

CREB-binding protein = CREB-binding protein (Homo sapiens, UniProt Q92793); test: Inhibition of H4K5/8/12/16-Ac-biotin binding to human CREBBP by Alpha screen assay
CREB-binding protein, sequence (Q92793 whole entry): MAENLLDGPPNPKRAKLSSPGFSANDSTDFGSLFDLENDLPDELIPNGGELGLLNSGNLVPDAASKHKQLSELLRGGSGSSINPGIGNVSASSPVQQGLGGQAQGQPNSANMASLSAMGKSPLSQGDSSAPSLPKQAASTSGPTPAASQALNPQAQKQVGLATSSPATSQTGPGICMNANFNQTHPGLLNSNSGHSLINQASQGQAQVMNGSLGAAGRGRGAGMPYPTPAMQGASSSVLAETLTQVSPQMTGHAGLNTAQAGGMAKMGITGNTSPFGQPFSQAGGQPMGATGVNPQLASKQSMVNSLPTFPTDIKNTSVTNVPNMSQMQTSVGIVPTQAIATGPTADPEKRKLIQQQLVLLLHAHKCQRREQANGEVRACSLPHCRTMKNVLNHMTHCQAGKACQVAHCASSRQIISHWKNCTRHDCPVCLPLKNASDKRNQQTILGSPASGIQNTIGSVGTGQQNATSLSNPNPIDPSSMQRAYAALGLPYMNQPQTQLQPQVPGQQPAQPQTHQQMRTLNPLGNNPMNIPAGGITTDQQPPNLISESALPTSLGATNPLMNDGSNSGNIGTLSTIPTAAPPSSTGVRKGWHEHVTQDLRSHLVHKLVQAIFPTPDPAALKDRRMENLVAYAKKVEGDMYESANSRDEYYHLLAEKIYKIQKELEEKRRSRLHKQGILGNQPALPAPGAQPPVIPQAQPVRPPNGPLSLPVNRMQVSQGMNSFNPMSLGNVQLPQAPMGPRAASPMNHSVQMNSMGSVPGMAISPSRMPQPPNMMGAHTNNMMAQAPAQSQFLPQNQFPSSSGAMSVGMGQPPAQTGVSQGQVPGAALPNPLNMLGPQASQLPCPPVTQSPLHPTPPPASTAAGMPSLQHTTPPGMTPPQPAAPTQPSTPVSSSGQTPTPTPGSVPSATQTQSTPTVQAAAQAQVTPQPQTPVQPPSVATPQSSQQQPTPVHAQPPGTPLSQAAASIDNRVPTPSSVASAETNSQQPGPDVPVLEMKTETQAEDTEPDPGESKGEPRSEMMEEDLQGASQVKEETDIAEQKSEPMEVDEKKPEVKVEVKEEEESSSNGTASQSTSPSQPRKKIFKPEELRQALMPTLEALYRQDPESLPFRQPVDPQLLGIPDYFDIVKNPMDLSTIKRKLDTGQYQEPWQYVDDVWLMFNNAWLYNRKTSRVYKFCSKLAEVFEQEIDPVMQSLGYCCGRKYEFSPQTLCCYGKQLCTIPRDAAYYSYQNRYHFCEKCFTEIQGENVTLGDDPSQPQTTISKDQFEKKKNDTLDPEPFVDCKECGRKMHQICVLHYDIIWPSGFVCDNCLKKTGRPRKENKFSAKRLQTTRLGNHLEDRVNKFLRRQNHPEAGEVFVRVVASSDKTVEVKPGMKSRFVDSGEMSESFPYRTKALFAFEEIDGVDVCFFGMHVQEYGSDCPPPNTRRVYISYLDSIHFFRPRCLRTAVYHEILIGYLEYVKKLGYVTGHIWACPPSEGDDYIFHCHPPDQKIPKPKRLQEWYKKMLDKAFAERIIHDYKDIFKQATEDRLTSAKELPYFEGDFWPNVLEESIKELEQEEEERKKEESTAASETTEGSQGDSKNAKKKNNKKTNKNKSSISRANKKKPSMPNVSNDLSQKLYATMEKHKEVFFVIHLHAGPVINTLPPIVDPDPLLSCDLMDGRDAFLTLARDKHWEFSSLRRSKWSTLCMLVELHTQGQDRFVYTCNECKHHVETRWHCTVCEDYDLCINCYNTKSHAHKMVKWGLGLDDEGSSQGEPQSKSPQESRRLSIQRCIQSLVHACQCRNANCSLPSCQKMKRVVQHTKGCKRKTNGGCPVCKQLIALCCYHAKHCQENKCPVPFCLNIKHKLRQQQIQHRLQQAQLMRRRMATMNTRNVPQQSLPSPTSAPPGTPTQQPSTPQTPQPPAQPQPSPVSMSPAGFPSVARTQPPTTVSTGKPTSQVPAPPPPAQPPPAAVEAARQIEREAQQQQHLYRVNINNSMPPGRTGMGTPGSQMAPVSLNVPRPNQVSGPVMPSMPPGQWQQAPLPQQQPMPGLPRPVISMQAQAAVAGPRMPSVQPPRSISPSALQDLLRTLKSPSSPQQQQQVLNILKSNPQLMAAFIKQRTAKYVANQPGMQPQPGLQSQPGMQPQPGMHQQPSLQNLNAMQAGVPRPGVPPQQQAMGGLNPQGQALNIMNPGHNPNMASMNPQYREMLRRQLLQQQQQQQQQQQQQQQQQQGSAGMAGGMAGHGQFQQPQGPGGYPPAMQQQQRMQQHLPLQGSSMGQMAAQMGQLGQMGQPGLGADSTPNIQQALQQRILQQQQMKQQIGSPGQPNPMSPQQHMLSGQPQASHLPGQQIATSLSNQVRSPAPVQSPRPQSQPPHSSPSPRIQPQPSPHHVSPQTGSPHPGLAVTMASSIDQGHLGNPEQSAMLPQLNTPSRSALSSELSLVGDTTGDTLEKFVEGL

Beta-secretase 1, sequence (P56817 whole entry): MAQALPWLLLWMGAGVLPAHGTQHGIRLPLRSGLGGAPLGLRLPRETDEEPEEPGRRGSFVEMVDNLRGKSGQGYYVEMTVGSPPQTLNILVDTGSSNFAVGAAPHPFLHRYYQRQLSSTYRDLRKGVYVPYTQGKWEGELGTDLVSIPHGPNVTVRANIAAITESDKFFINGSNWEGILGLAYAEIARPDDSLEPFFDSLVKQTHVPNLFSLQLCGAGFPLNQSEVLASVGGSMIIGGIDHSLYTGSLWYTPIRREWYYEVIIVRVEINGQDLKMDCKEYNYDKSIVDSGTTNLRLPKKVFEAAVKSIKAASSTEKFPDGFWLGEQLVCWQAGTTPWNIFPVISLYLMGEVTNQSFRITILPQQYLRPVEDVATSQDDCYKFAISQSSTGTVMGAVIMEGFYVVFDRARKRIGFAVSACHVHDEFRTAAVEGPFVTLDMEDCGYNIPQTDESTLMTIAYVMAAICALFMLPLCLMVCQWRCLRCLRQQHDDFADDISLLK

Compound: O=C(O)c1cc(-c2ccc(/C=N/Nc3nc(Nc4ccc(F)cc4)nc(N4CCOCC4)n3)o2)ccc1Cl
IC50 (Beta-secretase 1): 7 µM

Compound: CC(C)[C@H](NC(=O)CCCn1c(=O)[nH]c2ccccc2c1=O)C(=O)O
Ki [4]: 19 µM

Compound: O=C1CNCC(C(=O)NCCn2nc(-c3ccccc3)ccc2=O)N1 (stereo unspecified)
IC50 (CREB-binding protein): 55 µM

The next lines start with the values.

Kd [1]: 7 µM
Compound: CC(=O)N(C)c1cccc(-c2ccc3nnc(C)n3n2)c1

IC50 [2]: 23 µM
Compound: Cc1ccc(OCCCC(=O)Nc2nc(C)c(C)s2)cc1

IC50 [3]: 22 µM
Compound: COc1cc(/C=C2\SC(=O)N=C2N)ccc1O
